Results on nine molecules are retold here after patent US20120058999A1, “Substituted Tetrahydropyrrolopyrazine Compounds” (Gruenenthal GmbH, priority 2010, published 2012).

The structures appear in SMILES notation.

The test addresses T1, human B1R (Homo sapiens, UniProt P46663).
T1 construct: expressed in transfected cells; host or cells: CHO K1 cells (stably transfected)
T1 sequence (P46663 1-353): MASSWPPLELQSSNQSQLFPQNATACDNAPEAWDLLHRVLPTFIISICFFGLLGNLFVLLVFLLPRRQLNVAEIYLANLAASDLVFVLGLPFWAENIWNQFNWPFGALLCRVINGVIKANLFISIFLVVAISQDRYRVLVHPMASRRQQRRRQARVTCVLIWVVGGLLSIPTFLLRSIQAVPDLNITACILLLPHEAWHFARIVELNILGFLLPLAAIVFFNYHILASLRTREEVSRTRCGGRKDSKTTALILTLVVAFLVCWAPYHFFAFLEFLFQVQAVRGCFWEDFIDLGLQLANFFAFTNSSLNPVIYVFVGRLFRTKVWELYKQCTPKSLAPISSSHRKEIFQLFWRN
As to the kind of experiment: Functional investigation on the bradykinin 1 receptor, cell-based fluorescent calcium-mobilization assay (FLIPR), human. To be noted: 10 μM test substance; CHO K1 cells transfected with human B1R gene; agonist Lys-Des-Arg9-bradykinin at EC80; % of maximum achievable inhibition. The protocol:
The agonistic or antagonistic action of substances can be quantified on the bradykinin 1 receptor (B1R) of the human and rat species with ectopically expressing cell lines (CHO K1 cells) and with the aid of a Ca2+-sensitive dye (Fluo-4) using a fluorescent imaging plate reader (FLIPR). The value in % activation is based on the Ca2+ signal after addition of Lys-Des-Arg9 bradykinin (0.5 nM) or Des-Arg9 bradykinin (100 nM). Antagonists lead to a suppression of the Ca2+ influx following administration of the agonist. The % inhibition in comparison with the maximum achievable inhibition is indicated.
The agonistic or antagonistic action of substances can be determined on the bradykinin 1 receptor (B1R) of humans and rats by means of a cell-based fluorescent calcium-mobilization assay. According to this assay agonist-induced increase of intracellular free Ca^2+ is quantified by means of a Ca^2+-sensitive dye (Fluo-4 type, Molecular Probes Europe BV, Leiden, Netherlands), in a Fluorescent Imaging Plate Reader (FLIPR, Molecular Devices, Sunnyvale, USA) and/or the Novostar (BMG Labtech GmbH, Offenburg, Germany).
Chinese hamster ovary cells (CHO K1 cells), which are stably transfected with the human B1R gene (hB1R cells), or with the B1R gene of rats (rB1R cells) are used. For functional investigations these cells are seeded into black 96-well plates with a clear bottom (BD Biosciences, Heidelberg, Germany or Greiner, Frickenhausen, Germany) in a density of 20,000-35,000 cells/well. The cells are incubated overnight in a humidified atmosphere at 37° C. and 5% CO2 in culture medium (hB1R cells: Nutrient Mixture Ham's F12, Gibco Invitrogen GmbH, Karlsruhe, Germany or DMEM, Sigma-Aldrich, Taufkirchen, Germany; rB1R cells: D-MEM/F12, Gibco Invitrogen GmbH, Karlsruhe, Germany) with 10 vol. % FBS (foetal bovine serum, Gibco Invitrogen GmbH, Karlsruhe, Germany). On the following day the cells are loaded with the Ca^2+-sensitive dye Fluo-4-AM (Molecular Probes Europe BV, Leiden, Netherlands):
Method A: The medium of the cells is removed and cell plates are incubated with loading solution, which contains 2.13 μM Fluo-4-AM, 2.5 mM probenecid (Sigma-Aldrich, Taufkirchen, Germany), and 10 mM HEPES (Sigma-Aldrich, Taufkirchen, Germany) in HBSS buffer (Hank's buffered saline solution, Gibco Invitrogen GmbH, Karlsruhe, Germany) for 60 minutes at 37° C. After the plates are washed twice with HBSS buffer, HBSS buffer supplemented 0.1% BSA (bovine serum albumin; Sigma-Aldrich, Taufkirchen, Germany), 5.6 mM glucose and 0.05% gelatine (Merck KGaA, Darmstadt, Germany) is added. Cell plates are incubated for at least 20 minutes in the dark at room temperature before they are used for the Ca^2+ measurement in the FLIPR or Novostar. Method B: The plates are washed with buffer A (15 mM HEPES, 80 mM NaCl, 5 mM KCl, 1.2 mM CaCl2, 0.7 mM MgSO4, 2 mg/ml glucose, 2.5 mM probenecid) and subsequently loaded with buffer A containing 2.4 μM Fluo-4-AM and 0.025% pluronic F127 (Sigma-Aldrich, Taufkirchen, Germany) for 60 minutes at 37° C. Cell plates are washed twice with buffer A. Then, buffer A supplemented with 0.05% BSA and 0.05% gelatine is added and cell plates are incubated in the dark at room temperature for at least 20 minutes before measurement in the FLIPR or Novostar is started.
The Ca^2+-dependent fluorescence is measured both before and after the addition of substances (λex=488 nm, λem=540 nm). For quantification of the effect the highest fluorescence intensity (FC, fluorescence counts) over time is given.
The FLIPR protocol consists of two substance additions, done within the instrument while continuously monitoring the Ca^2+-dependent fluorescence at 540 nm. When the Novostar was used, one addition had to be done outside the instrument. First of all test substances (10 μM) are pipetted onto the cells and the intracellular Ca^2+ rise is compared with the control (hB1R: Lys-Des-Arg9-bradykinin >=50 nM; rB1R: Des-Arg9-bradykinin >=1 μM). […]

In the case of `CN(C(=O)CCC1c2cccn2CCN1S(=O)(=O)c1cccc(C(F)(F)F)c1)C1CCCC(N2CCOCC2)C1` (stereo not drawn) [CC-57, N-Methyl-N-(3-morpholin-4-yl-cyclohexyl)-3-[2-[[3-(trifluoromethyl)phenyl]sulfonyl]-1,2,3,4-tetrahydro-pyrrolo[1,2-a]pyrazin-1-yl]-propionamide], the inhibition – broadly, the share of the control response that was lost under treatment – at 10 µM came out at 39%.

As to `COc1cc(C)c(S(=O)(=O)N2CCn3cccc3C2CCCC(=O)N(C)C2CCCC(N3CCN(C(C)C)CC3)C2)c(C)c1` (stereo not drawn) [CC-51, N-[3-(4-Isopropyl-piperazin-1-yl)-cyclohexyl]-4-[2-[(4-methoxy-2,6-dimethyl-phenyl)sulfonyl]-1,2,3,4-tetrahydro-pyrrolo[1,2-a]pyrazin-1-yl]-N-methyl-butyramide], the inhibition at 10 µM stood at 99%.

Turning to `COc1cc(C)c(S(=O)(=O)N2CCn3cccc3C2COCC(=O)N(C)C2CCCC(N3CCOCC3)C2)c(C)c1` (stereo not drawn) [CC-54, 2-[[2-[(4-Methoxy-2,6-dimethyl-phenyl)sulfonyl]-1,2,3,4-tetrahydro-pyrrolo[1,2-a]pyrazin-1-yl]-methoxy]-N-methyl-N-(3-morpholin-4-yl-cyclohexyl)-acetamide], the inhibition at 10 µM amounted to 98%.

Turning to `COc1ccc2cc(S(=O)(=O)N3CCn4cccc4C3CC(=O)N[C@H]3CCC[C@@H](N4CCN(C)CC4)C3)ccc2c1` (relative stereo) [CC-09, 2-[2-[(6-Methoxy-naphthalen-2-yl)sulfonyl]-1,2,3,4-tetrahydro-pyrrolo[1,2-a]pyrazin-1-yl]-N-[cis-3-(4-methyl-piperazin-1-yl)-cyclohexyl]-acetamide], the inhibition at 10 µM was 100%.

Take `COc1ccc2cc(S(=O)(=O)N3CCn4cccc4C3CC(=O)N(C)C3CCCC(N4CCOCC4)C3)ccc2c1` (stereo not drawn) [CC-56, 2-[2-[(6-Methoxy-naphthalen-2-yl)sulfonyl]-1,2,3,4-tetrahydro-pyrrolo[1,2-a]pyrazin-1-yl]-N-methyl-N-(3-morpholin-4-yl-cyclohexyl)-acetamide]: the inhibition at 10 µM came to 99%.

Regarding `COc1cc(C)c(S(=O)(=O)N2CCn3cccc3C2CCCC(=O)N(C)C2CCCC(N3CCOCC3)C2)c(C)c1` (stereo not drawn) [CC-55, 4-[2-[(4-Methoxy-2,6-dimethyl-phenyl)sulfonyl]-1,2,3,4-tetrahydro-pyrrolo[1,2-a]pyrazin-1-yl]-N-methyl-N-(3-morpholin-4-yl-cyclohexyl)-butyramide], the inhibition at 10 µM stood at 88%.

`CC(C)N1CCN(C2CCCC(N(C)C(=O)CCC3c4cccn4CCN3S(=O)(=O)c3cccc(C(F)(F)F)c3)C2)CC1` (stereo not drawn) [CC-53, N-[3-(4-Isopropyl-piperazin-1-yl)-cyclohexyl]-N-methyl-3-[2-[[3-(trifluoromethyl)phenyl]sulfonyl]-1,2,3,4-tetrahydro-pyrrolo[1,2-a]pyrazin-1-yl]-propionamide]: the inhibition at 10 µM amounted to 87%.

In the case of `COc1ccc2cc(S(=O)(=O)N3CCn4cccc4C3CC(=O)N(C)C3CCCC(N4CCN(C(C)C)CC4)C3)ccc2c1` (stereo not drawn) [CC-52, N-[3-(4-Isopropyl-piperazin-1-yl)-cyclohexyl]-2-[2-[(6-methoxy-naphthalen-2-yl)sulfonyl]-1,2,3,4-tetrahydro-pyrrolo[1,2-a]pyrazin-1-yl]-N-methyl-acetamide], the inhibition at 10 µM was 100%.

Turning to `COc1cc(C)c(S(=O)(=O)N2CCn3cccc3C2COCC(=O)N(C)C2CCCC(N3CCN(C(C)C)CC3)C2)c(C)c1` (stereo not drawn) [CC-50, N-[3-(4-Isopropyl-piperazin-1-yl)-cyclohexyl]-2-[[2-[(4-methoxy-2,6-dimethyl-phenyl)sulfonyl]-1,2,3,4-tetrahydro-pyrrolo[1,2-a]pyrazin-1-yl]-methoxy]-N-methyl-acetamide], the inhibition at 10 µM was 99%.
